Measured values published in patent US4204879A, “Amino acid salts of anionic dyestuffs which have high solubility in organic solvents” (Williams (Hounslow) Limited, priority 1976, dated 1980).

Assay: Maximum concentration of dye giving a solution stable for 24 hours at room temperature (Tables 2 and 3)
Format: physicochemical
Description: The solubility values given in these Tables are the maximum concentration of dye in grams/liter giving a solution stable for 24 hours at room temperature.

[1] = Table 2, 24 hours, room temperature, salts of 1:2 chromium complex of 2-amino-4-nitrophenol→3-methyl-1-phenyl-5-pyrazolone

Substance | Solubility in Acetone (acetone, 24 h) | Solubility in Ethanol (24 h) | Solubility in Ethyl Acetate (ethyl acetate, 24 h) | Solubility in Acetone [1] | Solubility in Ethyl Acetate [1]
2-ethylhexylamine | > 100 g.1^-1 | 30 g.1^-1 | < 5 g.1^-1 |  | 
N-phenylglycine | > 100 g.1^-1 | 50 g.1^-1 | 100 g.1^-1 |  | 
aniline |  |  |  | 25 g.1^-1 | < 5 g.1^-1
iso-tridecylamine | > 500 g.1^-1 | 200 g.1^-1 | < 50 g.1^-1 |  | 
